Ten compounds from ChEMBL document CHEMBL1201862, “PubChem BioAssay data set” (2004) can be followed below.

Holding throughout (assay): NCI tumour cell line growth inhibition, 48 h
Experiment [1] relates to COLO 205.
Experiment [2] relates to SF-539.
In experiment [3] the test system is ACHN.
The test system of experiment [4] is RXF 393.
Experiment [5] relates to PC-3.
The subject of experiment [6] is MDA-N.
Experiment [7] has as its system HCT-116.
In experiment [8] the test system is NCI-H460.
The subject of experiment [9] is OVCAR-5.
Experiment [10] relates to HCT-15.
Experiment [11] concerns CAKI-1.
The test system of experiment [12] is NCI-H522.
In experiment [13] the test system is NCI/ADR-RES.
Experiment [14] deals with IGROV-1.
Experiment [15] concerns T47D.
Experiment [16] relates to Hs-578T.
Experiment [17] deals with SK-MEL-2.
For experiment [18], the system named is A549.
Experiment [19] concerns OVCAR-3.
For experiment [20], the system named is OVCAR-8.

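1) Cells in 96-well plates. 2) Compound, 48 h, 5 concentrations. 3) Linear interpolation between surrounding doses. 4) Unreached endpoint = highest concentration. GI50: concentration for 50% inhibition of growth.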 The source made the active and inactive calls. No stated cut-off is given here; in the data, active = GI50 up to about 1.1 µM and inactive = higher.

`O=C(/C=C/c1ccc2c(c1)OCO2)CC(=O)/C=C/c1ccc2c(c1)OCO2`: the GI50 was > 100 µM (inactive) in experiment [1]; 76.7 µM (inactive) in [2]; 84.3 µM (inactive) in experiment [3]; 87.7 µM (inactive) in experiment [4]; 86.3 µM (inactive) in experiment [5]; 40 µM (inactive) in [6]. For the same compound, the GI50 in [7] was 37.5 µM (inactive); in [8], 82.8 µM (inactive); in [9] it was > 100 µM (inactive); in experiment [10] it was more than 100 µM; in experiment [11], > 100 µM (inactive); in [12] it was 45 µM (inactive). Further, the GI50 in experiment [13] is 69.3 µM (inactive); in experiment [14] it was 23.5 µM (inactive); in experiment [15] it was > 100 µM (inactive); in experiment [16], 57.9 µM (inactive); in [17], > 100 µM (inactive); in experiment [18] it was > 100 µM (inactive). For the same compound, the GI50 in experiment [19] was 27.1 µM (inactive).

Take `CC(C)(C)c1cc(C(=O)/C=C/c2c(Cl)cccc2Cl)cc(C(C)(C)C)c1O`: the GI50 is 15.9 µM (inactive) in experiment [1]; 16.1 µM (inactive) in [2]; 14.7 µM (inactive) in experiment [3]; 2.05 µM (inactive) in experiment [4]; 11.4 µM (inactive) in experiment [5]; 16.7 µM (inactive) in experiment [6]. For the same compound, the GI50 was 8.83 µM (inactive) in experiment [7]; 7.46 µM (inactive) in experiment [8]; 19.2 µM (inactive) in [9]; 12.4 µM in experiment [10]; 18.9 µM (inactive) in experiment [20]; 22.2 µM (inactive) in experiment [11]. Also, the GI50 in experiment [12] was 5.57 µM (inactive); in experiment [13], 20.1 µM (inactive); in experiment [14] it was 23.4 µM (inactive); in [15] it was 4.33 µM (inactive); in experiment [16], 25.2 µM (inactive); in [17], 11.9 µM (inactive). Also, the figures for the GI50 in [18] and in experiment [19] were 18.8 µM (inactive) and 3.79 µM (inactive), respectively.

In the case of `COc1ccc2[nH]c3c(C)c4cnccc4c(C)c3c2c1`, the GI50 was 1.58 µM (inactive) in [1]; 1.88 µM (inactive) in experiment [2]; 2.01 µM (inactive) in [3]; 2.49 µM (inactive) in experiment [4]; 2.99 µM (inactive) in experiment [5]; 1.85 µM (inactive) in experiment [6]. Further, the GI50 in [7] is 1.25 µM (inactive); in [8], 1.78 µM (inactive); in experiment [9], 3.11 µM (inactive); in experiment [10], 1.61 µM; in [20], 1.01 µM (active); in [11], 6.27 µM (inactive). Also, the GI50 is 2.02 µM (inactive) in [12]; 1.22 µM (inactive) in [13]; 3.85 µM (inactive) in [14]; > 10 µM (inactive) in experiment [15]; 5.55 µM (inactive) in experiment [16]; 5.14 µM (inactive) in experiment [17]. The GI50 was 1.85 µM (inactive) in experiment [18] and 1.14 µM (inactive) in experiment [19].

For the compound `C=CC(=O)NCCC(=O)OCn1cc(F)c(=O)[nH]c1=O`, the GI50 was 1.37 µM (inactive) in experiment [1]; 2.65 µM (inactive) in experiment [2]; 5.02 µM (inactive) in experiment [3]; 10.1 µM (inactive) in [4]; 9.12 µM (inactive) in experiment [5]; 1.56 µM (inactive) in experiment [6]. Besides, the GI50 in experiment [7] is 3.24 µM (inactive); in experiment [8], 0.434 µM (active); in experiment [9] it was 20.6 µM (inactive); in experiment [10], 6.14 µM; in experiment [20] it was 11.5 µM (inactive); in [11] it was 3.2 µM (inactive). Moreover, the GI50 was 9.4 µM (inactive) in experiment [12]; 27 µM (inactive) in experiment [13]; 4.33 µM (inactive) in [14]; 83.2 µM (inactive) in experiment [15]; > 100 µM (inactive) in experiment [16]; 7.93 µM (inactive) in [17]. Also, the GI50 in experiment [18] was 2.36 µM (inactive); in [19], 10.5 µM (inactive).

For the compound `C[C@@H]1Nc2cc(NC(=O)OCCF)nc(N)c2N=C1c1ccccc1`, the GI50 in experiment [1] is < 0.0001 µM (active); in experiment [2] it was < 0.0001 µM (active); in [3] it was 24.8 µM (inactive); in experiment [4] it was 29 µM (inactive); in experiment [5] it was < 0.0001 µM (active); in [6], < 0.0001 µM (active). Besides, the GI50 is < 0.0001 µM (active) in experiment [7]; < 0.0001 µM (active) in experiment [8]; < 0.0001 µM (active) in [9]; less than 0.0001 µM in experiment [10]; < 0.0001 µM (active) in experiment [20]; > 100 µM (inactive) in [11]. The GI50 is < 0.0001 µM (active) in experiment [12]; < 0.0001 µM (active) in experiment [13]; < 0.0001 µM (active) in experiment [14]; 61.9 µM (inactive) in experiment [15]; < 0.0001 µM (active) in experiment [16]; < 0.01 µM (active) in experiment [17]. In addition, the GI50 in experiment [18] and in [19] was < 0.0001 µM (active) each time.

`COc1nc2ncc([C@@H](OC(C)=O)[C@@H](COC(C)=O)OC(C)=O)nc2c(=O)n1C`: the GI50 in experiment [1], in experiment [2], in [3], in experiment [4], in experiment [5] and in experiment [6] was > 100 µM (inactive) throughout. Also, the GI50 in experiment [7] is > 100 µM (inactive); in [8], > 100 µM (inactive); in experiment [9], > 100 µM (inactive); in [10], more than 100 µM; in experiment [20], > 100 µM (inactive); in experiment [11], > 100 µM (inactive). Moreover, the GI50 was 57.5 µM (inactive) in [12]; > 100 µM (inactive) in experiment [13]; > 100 µM (inactive) in [14]; > 100 µM (inactive) in experiment [15]; > 100 µM (inactive) in experiment [16]; > 100 µM (inactive) in experiment [17]. The GI50 in experiment [18] and in [19] was > 100 µM (inactive) throughout.

As for `COc1ccc2c(c1OC)C(=O)N1C2=Cc2c(cc3c(c2OC)OCO3)CC1N(C)C` (stereo not drawn), the GI50 in [1] was 58.2 µM (inactive); in [2] it was 59.2 µM (inactive); in experiment [3] it was 29.9 µM (inactive); in [4], 54.5 µM (inactive); in [5], 30.9 µM (inactive); in experiment [6], 95.3 µM (inactive). The GI50 in experiment [7] was 35.3 µM (inactive); in experiment [8], 28.8 µM (inactive); in experiment [9], > 100 µM (inactive); in experiment [10], 36.5 µM; in experiment [20], 35.7 µM (inactive); in [11], > 100 µM (inactive). Also, the GI50 in experiment [12] was 28.9 µM (inactive); in experiment [13], 26.4 µM (inactive); in experiment [14], > 100 µM (inactive); in [15], 24.4 µM (inactive); in experiment [16], 34.8 µM (inactive); in experiment [17], 36.2 µM (inactive). For the same compound, the GI50 in experiment [18] was 47.4 µM (inactive); in experiment [19], 40.6 µM (inactive).

Consider `S=C(N/N=C/c1ccccn1)N1CC2CCC(CC2)C1`, for which the GI50 in [1] is < 0.01 µM (active); in experiment [2] it was < 0.0229 µM (active); in experiment [3], < 0.01 µM (active); in experiment [4], 0.0703 µM (active); in [5], < 0.01 µM (active); in [6], 0.0188 µM (active). The GI50 in experiment [7] is < 0.01 µM (active); in [8], < 0.01 µM (active); in [9] it was < 0.024 µM (active); in [10] it was less than 0.01 µM; in experiment [20], < 0.01 µM (active); in [11], < 0.01 µM (active). The GI50 was < 0.01 µM (active) in experiment [12]; < 0.01 µM (active) in [13]; < 0.01 µM (active) in experiment [14]; < 0.01 µM (active) in experiment [15]; 0.299 µM (active) in experiment [16]; < 0.0471 µM (active) in experiment [17]. Moreover, the GI50 in experiment [18] and in [19] was < 0.01 µM (active) in each case.

For `CC[C@@]1(O)C(=O)OCc2c1cc1n(c2=O)Cc2c-1nc1ccccc1c2/C=N\NC(=O)C(N)Cc1c[nH]c2ccccc12` (stereo partly drawn), the GI50 is 18.2 µM (inactive) in experiment [1]; 0.101 µM (active) in [2]; < 0.0188 µM (active) in [3]; 0.145 µM (active) in experiment [4]; 1.29 µM (inactive) in experiment [5]; 2.02 µM (inactive) in experiment [6]. The GI50 is 0.392 µM (active) in [7]; 0.104 µM (active) in [8]; 13.1 µM (inactive) in experiment [9]; 0.555 µM (active) in experiment [20]; 0.0578 µM (active) in experiment [11]; 0.643 µM (active) in experiment [12]. In addition, the GI50 is 0.809 µM (active) in experiment [13]; 2.86 µM (inactive) in experiment [14]; 0.0743 µM (active) in [15]; 27.9 µM (inactive) in experiment [16]; 5.93 µM (inactive) in experiment [17]; 0.301 µM (active) in experiment [18]. In addition, the GI50 in [19] was 5.14 µM (inactive).

`CCOP(=O)(O)C(Nc1ccc(/N=N/c2ccccc2)cc1)c1ccc(C(Nc2ccc(/N=N/c3ccccc3)cc2)P(=O)(O)OCC)cc1` (stereo not drawn): the GI50 in experiment [1] is 15.3 µM (inactive); in experiment [2], 19.2 µM (inactive); in [3], > 100 µM (inactive); in experiment [4] it was 25.2 µM (inactive); in [5], 17.1 µM (inactive); in [6], 19.4 µM (inactive). For the same compound, the GI50 in [7] was 18.3 µM (inactive); in experiment [8], 22 µM (inactive); in experiment [9], 22.4 µM (inactive); in experiment [10] it was 19.7 µM; in [20], 16.3 µM (inactive); in experiment [11], 44.6 µM (inactive). Also, the GI50 in [12] was 18.6 µM (inactive); in experiment [13], 27.4 µM (inactive); in [14], 19.7 µM (inactive); in experiment [15], 15.3 µM (inactive); in experiment [16] it was 18.6 µM (inactive); in experiment [17], 18.2 µM (inactive). For the same compound, the GI50 in experiment [18] was 29.7 µM (inactive); in [19], 75.7 µM (inactive).
